Consider one molecule from patent US20060183119A1, “Method for determining predisposition to a physiological reaction in a patient” (UNIVERSITE LAVAL, priority 2002, published 2006).

What all share (assay type): in vitro ADME
Holding throughout (design): key to Function (SN-38G formation versus *1 allele): High: no significant difference in activity compared to *1 allele.; Low: significantly lower SN-38G formation versus *1 allele

The target of one data set is T1, UGT1A7*1 (Homo sapiens, UniProt Q9HAW7).
T1 construct: expressed in transfected cells
T1 sequence (Q9HAW7 26-530): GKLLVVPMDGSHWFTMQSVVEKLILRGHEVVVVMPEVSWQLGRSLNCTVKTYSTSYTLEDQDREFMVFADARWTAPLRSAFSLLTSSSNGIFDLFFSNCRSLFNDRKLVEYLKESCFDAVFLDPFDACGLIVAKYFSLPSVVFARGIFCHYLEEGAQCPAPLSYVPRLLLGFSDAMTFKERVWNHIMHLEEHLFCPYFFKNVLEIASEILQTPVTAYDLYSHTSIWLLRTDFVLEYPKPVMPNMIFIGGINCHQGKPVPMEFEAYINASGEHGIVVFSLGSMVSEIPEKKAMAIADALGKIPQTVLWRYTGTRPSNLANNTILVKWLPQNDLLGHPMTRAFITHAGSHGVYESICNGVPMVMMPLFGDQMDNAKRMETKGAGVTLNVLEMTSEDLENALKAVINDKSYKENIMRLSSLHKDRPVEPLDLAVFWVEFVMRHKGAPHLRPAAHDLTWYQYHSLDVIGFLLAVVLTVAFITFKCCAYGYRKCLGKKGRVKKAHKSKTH
As to the kind of experiment: SN-38 glucuronidation by microsomes of HEK293 cells expressing UGT1A7*1. The procedure:
(§1) Western blot analyses of UGT1A7 and UGT1A9 variants expressed in HEK293 cells were performed on microsomal proteins (10 μg) separated on a 10% SDS-polyacrylamide gel. After transferring the proteins, the membranes were probed with an anti-UGT1A RC-71 polyclonal antibody and with an anti-calnexin antibody. The relative levels of UGT1A9 (a) and UGT1A7 proteins (b) were determined by semi-quantitative densitometric analysis of the Enhanced chemiluminescence (ECL) image. The in vitro SN-38 activity was assessed using microsomal fractions prepared from HEK293 cells expressing the *1 and variant UGT1A9 (c) and UGT1A7 (d) alleles and incubated with 5 μM of SN-38 as described in Materials and Methods.
(§2) For the determination of Vmax and Km.

The next data set addresses T2, UGT1A7*2 (Homo sapiens, UniProt Q9HAW7, N129K/R131K).
T2 construct: expressed in transfected cells
T2 sequence (Q9HAW7 26-530 N129K/R131K): T1 sequence (Q9HAW7 26-530) with N104K, R106K
As to the kind of experiment: SN-38 glucuronidation by microsomes of HEK293 cells expressing UGT1A7*2. The protocol: as §1, §2

Another data set deals with T3, UGT1A7*4 (Homo sapiens, UniProt Q9HAW7, W208R).
T3 construct: expressed in transfected cells
T3 sequence (Q9HAW7 26-530 W208R): T1 sequence (Q9HAW7 26-530) with W183R
As to the kind of experiment: SN-38 glucuronidation by microsomes of HEK293 cells expressing UGT1A7*4. The protocol:
as §1, §2

Substitutions are numbered along the chain they refer to.

Turning to `CCc1c2c(nc3ccc(O)cc13)-c1cc3c(c(=O)n1C2)COC(=O)[C@]3(O)CC` [SN-38, 7-ethyl-10-hydroxycamptothecin], the “SN-38 glucuronidating activity of the allele (in words)” value on UGT1A7*1 was “highest”; on UGT1A7*2 it was “highest”; at UGT1A7*4, “low”. In addition, the “Function (SN-38G formation versus *1 allele)” value on UGT1A7*1 (in vitro experiments) is “High”; on UGT1A7*2 (in vitro experiments) it was “High”; on UGT1A7*4 (in vitro experiments), “Low”.
